For assay [1], the system named is ventricular muscle refractory period. The assay is described as follows: Influence on ventricular muscle refractory period (ERP). Type of assay: in vivo, mongrel dog. The following applies: Canis lupus familiaris, iv, i.v., (W-Y)/Y×100, read-out: ERP (%; extensibility of refractory period). On the procedure: (2) Influence on ventricular muscle refractory period Refractory periods were measured in the following manner before and after each of the compounds and d-sotalol shown in Table 2 was separately administered to a vein or a duodenum, and ERP (%; extensibility of refractory period) was calculated from the measured values: ERP (%)=(W-Y)/Y×100 W: Refractory period after administration Y: Refractory period before administration To a mongrel adult dog, 30 mg/kg of pentobarbital was administered intravenously, and after being anesthetized, a pair of silver-silver chloride electrodes separated by 3 mm was sewn on an opened right ventricule, and electrical stimulation was given at an interval of 400 msec at a duration time of 4 msec under a current twice as much as the threshold. Afterward, a small amount of alcohol was injected into a sinus artery in order to extinguish a pacemaker activity, and the ventricular refractory period (ERP) was measured under ventricule pacing. That is, each 1 train comprised 10 stimulations having intervals of 400 msec, and an interval between the trains was usually 400 msec. However, this interval was shortened 10 msec by 10 msec at the time of the refractory period measurement, and an interval between the trains at the time when reaction to the first stimulation of the train disappeared was regarded as the refractory period. In this case, the electrical stimulation was fed in accordance with a program by a heart stimulation device (Diamedical Co., Ltd.; DHM-226-3).

In assay [2] the test system is Purkinje fiber of the right ventricular free wall (myocardial action potential). The assay is described as follows: Influence on myocardial action potential duration time (APD75), isolated right ventricular free wall, microelectrode in Purkinje fiber. The following applies: Canis lupus familiaris, 20 min. In kind it is cell-based, dog.
Setting [3] is: 1.0 μg/ml, 20 minutes' incubation, (B-A)/A×100, read-out: APD75 (%).
Setting [4] is: 3.0 μg/ml, 20 minutes' incubation, (B-A)/A×100, read-out: APD75 (%).
The mark [5] stands for this setting: 10.0 μg/ml, 20 minutes' incubation, (B-A)/A×100, read-out: APD75 (%).

Structures can show the parent of a compound that is named as a salt. Where two headings read alike, the source gives them in different places.

For 17 compounds, change in vivo and activation results are on record in patent publication US5008267A, “Pyrimidinedione compounds, method of producing the same and antiarrythmic agents containing the same” (Mitsui Toatsu Chemicals, Incorporated, priority 1988, dated 1991).

Turning to `Cn1c(N2CCN(c3ccc([N+](=O)[O-])cc3)CC2)cc(=O)n(C)c1=O` [Compound 1, 1,3-dimethyl-6-[4-(4-nitrophenyl)piperazin-1-yl]-2,4(1H,3H)-pyrimidinedione], in assay [1], the change in vivo at 0.1 mg/kg was 3.6%, the change in vivo at 0.3 mg/kg came out at 3.6% and the change in vivo at 1 mg/kg came out at 10.3%.
Turning to `Cn1c(N2CCN(CCc3ccc([N+](=O)[O-])cc3)CC2)cc(=O)n(C)c1=O` [Compound 14, 1,3-dimethyl-6-{4-[2-(4-nitrophenyl)ethyl]piperazin-1-yl}-2,4(1H,3H)-pyrimidinedione hydrochloride], the activation at 0.3 µg/mL in assay [2] (0.3 μg/ml, 20 minutes' incubation, (B-A)/A×100) worked out at 18%. The activation at 1 µg/mL in assay [2] (setting [3]) was 43%. Besides, in assay [1], the change in vivo at 0.1 mg/kg came out at 14% and the change in vivo at 0.3 mg/kg came to 33.5%.
For `Cn1c(NCCNCc2ccc([N+](=O)[O-])cc2)cc(=O)n(C)c1=O` [Compound 15, 1,3-dimethyl-6-[2-(4-nitrobenzylamino)ethylamino]-2,4(1H,3H)-pyrimidinedione oxalate], the activation at 3 µg/mL in assay [2] (setting [4]) was 6%. In addition, the activation at 10 µg/mL in assay [2] (setting [5]) is 16%. In addition, in assay [1], the change in vivo at 0.1 mg/kg is 6.3%, the change in vivo at 0.3 mg/kg worked out at 12.5%, the change in vivo at 1 mg/kg was found to be 12.5% and the change in vivo at 3 mg/kg was 18.8%.
Take `Cn1c(NCCNCCc2ccc([N+](=O)[O-])cc2)cc(=O)n(C)c1=O` [Compound 16, 1,3-dimethyl-6-{2-[2-(4-nitrophenyl)ethylamino]ethylamino}-2,4(1H,3H)-pyrimidinedione oxalate]: the activation at 3 µg/mL in assay [2] (setting [4]) is 22%. Besides, in assay [1], the change in vivo at 0.1 mg/kg turned out to be 6.7%, the change in vivo at 0.3 mg/kg came out at 13.3% and the change in vivo at 1 mg/kg was 13.3%.
On to `CCN(CCNc1cc(=O)n(C)c(=O)n1C)CCc1ccc([N+](=O)[O-])cc1` [Compound 21], for which the activation at 1 µg/mL in assay [2] (setting [3]) was determined as 13%. In addition, the activation at 3 µg/mL in assay [2] (setting [4]) was 27%. The activation at 10 µg/mL in assay [2] (setting [5]) was determined as 37%. For the same compound, in assay [1], the change in vivo at 0.1 mg/kg turned out to be 7%, the change in vivo at 0.3 mg/kg is 10%, the change in vivo at 1 mg/kg is 14% and the change in vivo at 3 mg/kg was found to be 14%.
`Cn1c(N2CCN(CCCc3ccc([N+](=O)[O-])cc3)CC2)cc(=O)n(C)c1=O` [Compound 33, 1,3-dimethyl-6-{4-[3-(4-nitrophenyl)propyl]piperazin-1-yl)-2,4(1H,3H)-pyrimidinedione oxalate]: in assay [2] (setting [3]), the activation at 1 µg/mL was found to be 17%. Also, the activation at 3 µg/mL in assay [2] (setting [4]) was found to be 22%. Further, the activation at 10 µg/mL in assay [2] (setting [5]) was 31%. Besides, in assay [1], the change in vivo at 0.1 mg/kg was 14.3%, the change in vivo at 0.3 mg/kg was determined as 14.3%, the change in vivo at 1 mg/kg came to 17.9% and the change in vivo at 3 mg/kg was 21.4%.
As for `Cn1c(N2CCN(CCCOc3ccc([N+](=O)[O-])cc3)CC2)cc(=O)n(C)c1=O` [Compound 35, 1,3-dimethyl-6-{4-[3-(4-nitrophenoxy)propyl]piperazin-1-yl}-2,4(1H,3H)-pyrimidinedione hydrochloride], the activation at 1 µg/mL in assay [2] (setting [3]) came to 17%. The activation at 3 µg/mL in assay [2] (setting [4]) worked out at 22%. Moreover, the activation at 10 µg/mL in assay [2] (setting [5]) was determined as 30%. In assay [1], the change in vivo at 0.1 mg/kg is 6%, the change in vivo at 0.3 mg/kg was found to be 12%, the change in vivo at 1 mg/kg is 15.8% and the change in vivo at 3 mg/kg stood at 25.3%.
Turning to `Cn1c(N2CCN(CCCOc3cccc([N+](=O)[O-])c3)CC2)cc(=O)n(C)c1=O` [Compound 38, 1,3-dimethyl-6-{4-[3-(3-nitrophenoxy)propyl]piperazin-1-yl}-2,4(1H,3H)-pyrimidinedione hydrochloride], the activation at 1 µg/mL in assay [2] (setting [3]) is 15%. In assay [2] (setting [4]), the activation at 3 µg/mL was found to be 34%. Further, in assay [1], the change in vivo at 0.1 mg/kg came to 0%, the change in vivo at 0.3 mg/kg turned out to be 0%, the change in vivo at 1 mg/kg was found to be 7% and the change in vivo at 3 mg/kg was determined as 14%.
Consider `Cn1c(N2CCN(CC(=O)Nc3ccc([N+](=O)[O-])cc3)CC2)cc(=O)n(C)c1=O` [Compound 47, 1,3-dimethyl-6-{4-[N-(4-nitrophenyl)carbamoylmethyl]piperazin-1-yl}-2,4(1H,3H)pyrimidinedione oxalate], for which the activation at 1 µg/mL in assay [2] (setting [3]) amounted to 5%. For the same compound, the activation at 3 µg/mL in assay [2] (setting [4]) was found to be 11%. In assay [2] (setting [5]), the activation at 10 µg/mL came to 16%.
As for `Cn1c(N2CCN(CCCNc3ccc([N+](=O)[O-])cc3)CC2)cc(=O)n(C)c1=O` [Compound 58], in assay [2] (setting [3]), the activation at 1 µg/mL was found to be 10%. Moreover, in assay [2] (setting [4]), the activation at 3 µg/mL was 18%. The activation at 10 µg/mL in assay [2] (setting [5]) was determined as 28%.
On to `Cn1c(NCCNC2CCN(c3ccc([N+](=O)[O-])cc3)CC2)cc(=O)n(C)c1=O` [Compound 61, 1,3-dimethyl-6-{2-[[1-(4-nitrophenyl)piperidin-4-yl]amino]ethylamino}-2,4(1H,3H)-pyrimidinedione oxalate], for which, in assay [1], the change in vivo at 0.1 mg/kg was 8.3%, the change in vivo at 0.3 mg/kg was determined as 8.3% and the change in vivo at 1 mg/kg was determined as 8.3%.
Take `CCN(CCCNc1ccc([N+](=O)[O-])cc1)CCNc1cc(=O)n(C)c(=O)n1C` [Compound 73, 1,3-dimethyl-6-{2-[N-ethyl-3-(4-nitroanilino)propylamino]ethylamino}-2,4(1H,3H)-pyrimidinedione hydrochloride]: the activation at 1 µg/mL in assay [2] (setting [3]) stood at 2%. For the same compound, the activation at 3 µg/mL in assay [2] (setting [4]) came out at 12%. For the same compound, the activation at 10 µg/mL in assay [2] (setting [5]) amounted to 18%.
For `CC(=O)c1ccc(OCCN2CCN(c3cc(=O)n(C)c(=O)n3C)CC2)c([N+](=O)[O-])c1` [Compound 102], the activation at 1 µg/mL in assay [2] (setting [3]) was 7%. Moreover, in assay [2] (setting [4]), the activation at 3 µg/mL turned out to be 20%.
As for `Cn1c(N2CCN(CCCOc3ccc([N+](=O)[O-])cc3C(=O)c3ccccc3O)CC2)cc(=O)n(C)c1=O` [Compound 104, 1,3-dimethyl-6-{4-<3-[2-(2-hydroxybenzoyl)-4-nitrophenoxy]propyl>piperazin-1-yl}-2,4(1H,3H)-pyrimidinedione oxalate], the activation at 3 µg/mL in assay [2] (setting [4]) came to 16%. For the same compound, in assay [2] (setting [5]), the activation at 10 µg/mL was 25%.
`CC(=O)c1cc([N+](=O)[O-])ccc1NCCCN1CCN(c2cc(=O)n(C)c(=O)n2C)CC1` [Compound 120, 1,3-dimethyl-6-{4-[3-(2-acetyl-4-nitroanilino)propyl]piperazin-1-yl}-2,4(1H,3H)-pyrimidinedione oxalate]: in assay [2] (setting [3]), the activation at 1 µg/mL stood at 16%. For the same compound, the activation at 3 µg/mL in assay [2] (setting [4]) was 27%. In assay [2] (setting [5]), the activation at 10 µg/mL stood at 29%.
As to `COCCN(CCCc1ccc([N+](=O)[O-])cc1)CCNc1cc(=O)n(C)c(=O)n1C` [Compound 171, 1,3-dimethyl-6-{2-[N-(2-methoxyethyl)-3-(4-nitrophenyl)propylamino]ethylamino}-2,4(1H,3H)-pyrimidinedione oxalate], in assay [2] (setting [3]), the activation at 1 µg/mL was 19%. Besides, the activation at 3 µg/mL in assay [2] (setting [4]) worked out at 23%. Further, the activation at 10 µg/mL in assay [2] (setting [5]) was found to be 38%.
`Cn1c(NCCN(CCO)CCCc2ccc([N+](=O)[O-])cc2)c([N+](=O)[O-])c(=O)n(C)c1=O` [Compound 180, 1,3-dimethyl-6-{2-[N-(2-hydroxethyl)-3-(4-nitrophenyl)propylamino]ethylamino}-5-nitro-2,4(1H,3H)-pyrimidinedione hydrochloride]: in assay [2] (read-out: APD75 (%)), the activation at 1 µg/mL turned out to be 11%, the activation at 3 µg/mL amounted to 20% and the activation at 10 µg/mL turned out to be 26%.
